Source: patent publication US20060211739A1, “Use of selective P2X7 receptor antagonists” (priority 2005, published 2006)
Counter-ions that a name gives are not always drawn.

melting point [°C]	SMILES
104 to 105	Cc1ncccc1Cn1nnnc1-c1cccc(Cl)c1Cl.Cl
172 to 174	Cc1ncccc1Cn1nnnc1-c1cc(Cl)ccc1Cl [Example 44, 3-{[5-(2,5-dichlorophenyl)-1H-tetraazol-1-yl]methyl}-2-methylpyridine]
196 to 197	Brc1ccc(-c2nnnn2Cc2ccccc2)s1 (as salt: hydrochloride) [Example 51, 1-benzyl-5-(5-bromothien-2-yl)-1H-tetraazole]
153 to 154	Clc1cccc(-c2nnnn2Cc2cscn2)c1Cl (as salt: hydrochloride) [Example 31, 5-(2,3-dichlorophenyl)-1-(1,3-thiazol-4-ylmethyl)-1H-tetraazole]
174 to 175	Cc1nc(C)c(Cn2nnnc2-c2cccc(Cl)c2Cl)s1 (as salt: hydrochloride) [Example 36, 5-(2,3-dichlorophenyl)-1-[(2,4-dimethyl-1,3-thiazol-5-yl)methyl]-1H-tetraazole]
200 to 201	Cl.Clc1ccc(Cl)c(-c2nnnn2Cc2cccnc2)c1
161 to 163	CCOC(=O)c1nocc1Cn1nnnc1-c1cccc(Cl)c1Cl (as salt: hydrochloride) [Example 34, ethyl 4-{[5-(2,3-dichlorophenyl)-1H-tetraazol-1-yl]methyl}isoxazole-3-carboxylate]
176 to 178	Cc1noc(C)c1Cn1nnnc1-c1cccc(Cl)c1Cl (as salt: hydrochloride) [Example 38, 5-(2,3-dichlorophenyl)-1-[(3,5-dimethylisoxazol-4-yl)methyl]-1H-tetraazole]
151 to 153	Cc1[nH]cnc1Cn1nnnc1-c1cccc(Cl)c1Cl (as salt: hydrochloride) [Example 35, 5-(2,3-dichlorophenyl)-1-[(5-methyl-1H-imidazol-4-yl)methyl]-1H-tetraazole]
146 to 148	Cc1ccnc(C)c1Cn1nnnc1-c1cccc(Cl)c1Cl (as salt: hydrochloride) [Example 30, 3-{[5-(2,3-dichlorophenyl)-1H-tetraazol-1-yl]methyl}-2,4-dimethylpyridine]
156 to 158	Cc1nc(Cn2nnnc2-c2cccc(Cl)c2Cl)cs1 (as salt: hydrochloride) [Example 32, 5-(2,3-dichlorophenyl)-1-[(2-methyl-1,3-thiazol-4-yl)methyl]-1H-tetraazole]
166 to 168	Cn1cncc1Cn1nnnc1-c1cccc(Cl)c1Cl (as salt: hydrochloride) [Example 37, 5-(2,3-dichlorophenyl)-1-[(1-methyl-1H-imidazol-5-yl)methyl]-1H-tetraazole]
154 to 156	Cc1ccncc1Cn1nnnc1-c1cccc(Cl)c1Cl (as salt: hydrochloride) [Example 29, 3-{[5-(2,3-dichlorophenyl)-1H-tetraazol-1-yl]methyl}-4-methylpyridine]
176 to 177	Clc1ccc(-c2nnnn2Cc2ccccc2)s1 (as salt: hydrochloride) [Example 50, 1-benzyl-5-(5-chlorothien-2-yl)-1H-tetraazole]
